Test results reported in patent US4492757A, “Process for preparing L-threonine” (Denki Kagaku Kogyo Kabushiki Kaisha, priority 1981, dated 1985).

Experiments:
D-threonine-aldolase = test: Agents inhibiting, activating or stabilizing the activity of the novel enzyme; assay type: biochemical
L-allothreonine-aldolase = test: Inhibitants, stabilizers and coenzyme of L-allothreonine-aldolase; assay type: biochemical

Structure (SMILES) | effect of the agent on the activity of the novel enzyme (D-threonine-aldolase) | effect of the agent on L-allothreonine-aldolase (L-allothreonine-aldolase) | coenzyme (L-allothreonine-aldolase)
O[C@H](CS)[C@H](O)CS (racemic) [dithiothreitol] | activated and stabilized | Stabilizers | 
[Ag+] [Ag^+] | inhibited | Inhibitants | 
[Co+2] [Co^2+] | activated and stabilized |  | 
[Cu+2] [Cu^2+] | inhibited | Inhibitants | 
[Fe+2] [Fe^2+] | activated and stabilized |  | 
[Hg+2] [Hg^2+] | inhibited | Inhibitants | 
[Mg+2] [Mg^2+] | activated and stabilized |  | 
[Mn+2] [Mn^2+] | activated and stabilized |  | 
[Pd+2] [Pd^2+] | inhibited |  | 
[Zn+2] [Zn^2+] | inhibited |  | 
NO [hydroxylamine] | inhibited |  | 
OCCS [mercaptoethanol] | activated and stabilized | Stabilizers | 
O=C(O)c1cc[c]([Hg][Cl])cc1 [p-chloromercuribenzoate] | inhibited |  | 
Cc1ncc(COP(=O)(O)O)c(C=O)c1O [pyridoxal-5'-phosphate] |  |  | Coenzyme
O=S([O-])O.[Na+] [sodium hydrogen sulfite] | activated and stabilized |  | 
O=S([O-])[O-].[Na+].[Na+] [sodium sulfite] | activated and stabilized | Stabilizers | 
